Measured values reported in paper PMC8124269 (Molecules, 2021).
Entries after “also recorded” stand apart in the source; their conditions may differ. Where two headings read alike, the source gives them in different places.

Assays:
wild type N-NTD = test system: wild type N-NTD; design: method as in PMID 22272272; conditions: hexachlorofluorescein labeled ssRNA titrated with N-NTD; read-out: KD of RNA binding to N-NTD; cited from earlier work
SARS-CoV-2 [1] = experiment: microbe, parasite or virus in culture; type: cell-based; conditions: for effect on viral replication: infected Vero E6 cells, MOI 0.01, 48 and 72 hpi
[2] = Cytotoxicity in Vero E6 cells; conditions: African green monkey
[3] = test system: N NTD oligomerization induced by 48-mer DNA; type: biochemical; conditions: for Oligomer Inhibition/Enhancement / Oligomer Size (hydrodynamic diameter Dh of DNA-NTD complex): NTD (60 µM) monomer, [compound] = 37.5 µM, [48-mer] = 29.4 µM; for Oligomer Size (hydrodynamic diameter Dh of DNA-NTD complex): 20 °C, without ligand 15.7 ± 0.7
COX = conditions: cited from earlier work; for COX Inhibition: which COX is inhibited, ref 11 (given for naproxen A and C0)
in vitro = conditions: African green monkey
Influenza A virus = conditions: cited from earlier work
[4] = molecular target: SARS-CoV-2 N-NTD (monomer) with labeled 10-mer RNA (Severe acute respiratory syndrome coronavirus 2, UniProt P0DTC9); experiment: biochemical; conditions: read-out: N Binding, Fluo Anisotropy (KD, displacement of RNA)
SARS-CoV-2 in nasal HAE = conditions: 90 µM or 300 µM, postinfection treatment, 48 hpi
viral 3C-like protease = conditions: cited from earlier work
SARS-CoV-2 [5] = test system: SARS-CoV-2; design: method as in PMID 33441348; conditions: cited from earlier work
[6] = Vero E6, MOI 0.01, treatment 1 hpi

With “10-mer RNA: fluorescently labeled RNA UCUCUAAACG labeled with 5′-hexachlorofluorescein” as the compound, how does the Kd (wild type N-NTD) read?
The Kd was 8.3 ± 0.8 µM.

For `CC(=O)Nc1ccc(O)cc1` [Acetaminophen (paracetamol), Acetaminophen], which “Mean IC50 (viral replication)” value (SARS-CoV-2 [1]; [6]) is on record?
Its value is “No inhibition”.

What about the “effect on viral replication” value (SARS-CoV-2 [1]) of the same compound?
Its value is “No inhibition of viral replication; also recorded: mainly not affecting viral replication”.

And the CC50 [2]?
Its CC50 is > 400 µM.

What about the CC50 at 48 h post infection [2] of the same compound?
The CC50 at 48 h post infection was > 400 µM.

What about the CC50 at 72 h post infection [2] of the same compound?
The CC50 at 72 h post infection was > 400 µM.

And the “Oligomer Inhibition/Enhancement” value [3]?
Its value is “did not modify NTD oligomerization”.

What about the “Oligomer Size (hydrodynamic diameter Dh of DNA-NTD complex)” value [3] of the same compound?
Its value is 14.0 ± 1.0 nm.

What about the “COX Inhibition” value (COX) of the same compound?
The value was “COX1 + COX2 ? ^1”.

What does the source list for `Cc1ccc(-c2cc(C(F)(F)F)nn2-c2ccc(S(N)(=O)=O)cc2)cc1` [Celecoxib]?
Mean IC50 (viral replication) (SARS-CoV-2 [1]; [6]): proviral; effect on viral replication (SARS-CoV-2 [1]): No inhibition of viral replication; also recorded: did not present a clear antiviral effect; CC50 [2]: 80 µM; CC50 at 48 h post infection [2]: 83 µM; Oligomer Inhibition/Enhancement ([3]; listed as celecoxib): enhanced the formation of large species; Oligomer Size, large particles formed ([3]; compound in DMSO, compared to N + DMSO (12 nm)): ^7 Formation of large particles of 3 µm as compared to N + DMSO (12 nm); COX Inhibition (COX): COX2

For `COc1ccc2cc(C(CCC(=O)O)C(=O)O)ccc2c1` (stereo not drawn) [Naproxen A], which “Mean IC50 (viral replication)” value (SARS-CoV-2 [1]; [6]) is on record?
The value was “No inhibition”.

What about the “effect on viral replication” value (SARS-CoV-2 [1]) of the same compound?
Its value is “did not reduce viral replication”.

What about the CC50 (in vitro) of the same compound?
Its CC50 is > 1000 µM.

What about the CC50 at 48 h post infection (in vitro) of the same compound?
The CC50 at 48 h post infection was > 1000 µM.

What about the CC50 at 72 h post infection (in vitro) of the same compound?
Its CC50 at 72 h post infection is > 1000 µM.

What about the “Oligomer Size (hydrodynamic diameter Dh of DNA-NTD complex)” value [3] of the same compound?
Its value is 16.0 ± 0.8 nm.

What about the “antiviral effect against Influenza A virus” value (Influenza A virus) of the same compound?
Its value is “no antiviral effect”.

And the “ability to inhibit COX” value (COX)?
The value was “lacked the ability to inhibit COX”.

Which results are given for `COc1ccc2cc(-c3c(C(=O)O)cccc3C(=O)O)ccc2c1` [Naproxen C0]?
IC50 (SARS-CoV-2 [1]; Severe acute respiratory syndrome coronavirus 2, Vero C1008, Vero E6, MOI 0.01, treatment 1 hpi, read-out: Mean IC50 (viral replication)): 75 ± 25 µM; IC50 (SARS-CoV-2 [1]; Severe acute respiratory syndrome coronavirus 2, Vero C1008, Vero E6, MOI 0.01, unique treatment at 1 hpi, 48 hpi, read-out: IC50): 101 µM; IC50 (SARS-CoV-2 [1]; Severe acute respiratory syndrome coronavirus 2, Vero C1008, Vero E6, MOI 0.01, unique treatment at 1 hpi, 72 hpi, read-out: IC50): 45.1 µM; IC50 (SARS-CoV-2 [1]; Vero E6, MOI 0.01, treatment 1 hpi, read-out: Mean IC50 (viral replication)): 73 ± 25 µM; CC50 (in vitro): > 1000 µM; CC50 at 48 h post infection (in vitro): > 1000 µM; CC50 at 72 h post infection (in vitro): > 1000 µM; Kd [4]: 1.6 µM; Oligomer Size (hydrodynamic diameter Dh of DNA-NTD complex) [3]: 12.7 ± 0.7 nm; ability to inhibit COX (COX): lacked the ability to inhibit COX

For `COc1ccc2cc([C@H](C)C(=O)O)ccc2c1` [Naproxen, naproxen], which IC50 (SARS-CoV-2 [1]; Severe acute respiratory syndrome coronavirus 2, Vero C1008, Vero E6, MOI 0.01, unique treatment at 1 hpi, 48 hpi) is on record?
Its IC50 is 46.1 µM.

And the IC50 (SARS-CoV-2 [1]; Severe acute respiratory syndrome coronavirus 2, Vero C1008, Vero E6, MOI 0.01, unique treatment at 1 hpi, 72 hpi)?
The IC50 was 59.5 µM.

And the IC50 (SARS-CoV-2 [1]; Severe acute respiratory syndrome coronavirus 2, Vero C1008, read-out: Mean IC50 (viral replication), Vero E6, MOI 0.01, treatment 1 hpi)?
The IC50 was 50 ± 10 µM.

And the IC50 (SARS-CoV-2 [1]; read-out: Mean IC50 (viral replication), Vero E6, MOI 0.01, treatment 1 hpi)?
The IC50 was 52 ± 6 µM.

And the “antiviral effect versus mock-treated control” value (SARS-CoV-2 in nasal HAE)?
Its value is “did not show an antiviral effect”.

And the “Oligomer Size (hydrodynamic diameter Dh of DNA-NTD complex)” value [3]?
Its value is 7.9 ± 0.3 nm.

And the IC50 (Influenza A virus; MOI = 10^−2)?
Its IC50 is 25 ± 7 µM.

What about the IC50 (viral 3C-like protease) of the same compound?
Its IC50 is 3.45 µM.

What about the “COX Inhibition” value (COX) of the same compound?
Its value is “COX1 + COX2”.

Which “effect on SARS-CoV-2 entry or replication in vitro” value (SARS-CoV-2 [5]) does the source give for `CC(C)Cc1ccc(C(C)C(=O)O)cc1` (stereo not drawn) [ibuprofen] here?
The value was “did not affect SARS-CoV-2 entry or replication in vitro”.

For `Cc1cnc(NC(=O)C2=C(O)c3ccccc3S(=O)(=O)N2C)s1` [meloxicam], which “effect on SARS-CoV-2 entry or replication in vitro” value (SARS-CoV-2 [5]) is on record?
Its value is “did not affect SARS-CoV-2 entry or replication in vitro”.
